Measurements taken from patent US12649746B2, “Ketorolaco derivative, pharmaceutical composition and preparation method therefor and use thereof” (NANJING HERON PHARMACEUTICAL SCIENCE AND TECHNOLOGY CO., …, priority 2020, dated 2026).
“Also recorded” adds a separate entry of the source.

Experiment: By-product toxicity test (metabolic byproducts in the human body)
Settings: by the metabolic pathways of the compounds in the human body

Compound	Metabolic by-products in human body
CCC(=O)OC(C)OC(=O)C1CCn2c(C(=O)c3ccccc3)ccc21 (centres unmarked) [N4]	Acetaldehyde and propionic acid

Same assay, conditions: toxicity of the metabolic by-products in human body

Compound	Toxicity
CCCCCCCCOC(=O)OC(C)OC(=O)C1CCn2c(C(=O)c3ccccc3)ccc21 (centres unmarked) [N26]	n-octanol is more toxic
CCC(=O)OC(CC)OC(=O)C1CCn2c(C(=O)c3ccccc3)ccc21 (centres unmarked) [N8]	low toxicity of byproducts; also recorded: relatively low
CCC(=O)OC(C)OC(=O)C1CCn2c(C(=O)c3ccccc3)ccc21 (centres unmarked) [N4]	relatively low

Experiment: High temperature stability study of compounds (60° C.)
Type: physicochemical
Settings: in the dark, Day 0
Procedure: Test protocol: the compounds prepared in the present disclosure were placed in a colorless and transparent vial, placed in the dark at a high temperature (60° C.), and were sampled for day 0, day 5 and day 10, respectively, and the purity of the compounds and the change of the related substance (ketorolac) were determined.

Compound	Total main peak purity (%)
CCC(OC(=O)OC(C)C)OC(=O)C1CCn2c(C(=O)c3ccccc3)ccc21 (centres unmarked) [N16]	97.33
CCOC(=O)OC(CC)OC(=O)C1CCn2c(C(=O)c3ccccc3)ccc21 (centres unmarked) [N15]	96.30
CCC(=O)OC(CC)OC(=O)C1CCn2c(C(=O)c3ccccc3)ccc21 (centres unmarked) [N8]	93.15
CCC(=O)OC(C)OC(=O)C1CCn2c(C(=O)c3ccccc3)ccc21 (centres unmarked) [N4]	98.91

Same assay, conditions: in the dark, Day 5

Compound	Total main peak purity (%)
CCC(OC(=O)OC(C)C)OC(=O)C1CCn2c(C(=O)c3ccccc3)ccc21 (centres unmarked) [N16]	96.50
CCOC(=O)OC(CC)OC(=O)C1CCn2c(C(=O)c3ccccc3)ccc21 (centres unmarked) [N15]	95.87
CCC(=O)OC(CC)OC(=O)C1CCn2c(C(=O)c3ccccc3)ccc21 (centres unmarked) [N8]	93.30
CCC(=O)OC(C)OC(=O)C1CCn2c(C(=O)c3ccccc3)ccc21 (centres unmarked) [N4]	98.38

Same assay, conditions: in the dark, Day 10

Compound	Total main peak purity (%)
CCC(OC(=O)OC(C)C)OC(=O)C1CCn2c(C(=O)c3ccccc3)ccc21 (centres unmarked) [N16]	96.16
CCOC(=O)OC(CC)OC(=O)C1CCn2c(C(=O)c3ccccc3)ccc21 (centres unmarked) [N15]	95.59
CCC(=O)OC(CC)OC(=O)C1CCn2c(C(=O)c3ccccc3)ccc21 (centres unmarked) [N8]	92.34
CCC(=O)OC(C)OC(=O)C1CCn2c(C(=O)c3ccccc3)ccc21 (centres unmarked) [N4]	98.04

Same assay, conditions: related substance, in the dark, Day 0

Compound	Ketorolac (%)
CCC(OC(=O)OC(C)C)OC(=O)C1CCn2c(C(=O)c3ccccc3)ccc21 (centres unmarked) [N16]	0.05
CCOC(=O)OC(CC)OC(=O)C1CCn2c(C(=O)c3ccccc3)ccc21 (centres unmarked) [N15]	0.08
CCC(=O)OC(CC)OC(=O)C1CCn2c(C(=O)c3ccccc3)ccc21 (centres unmarked) [N8]	0.18
CCC(=O)OC(C)OC(=O)C1CCn2c(C(=O)c3ccccc3)ccc21 (centres unmarked) [N4]	0.12

Same assay, conditions: related substance, in the dark, Day 5

Compound	Ketorolac (%)
CCC(OC(=O)OC(C)C)OC(=O)C1CCn2c(C(=O)c3ccccc3)ccc21 (centres unmarked) [N16]	0.07
CCOC(=O)OC(CC)OC(=O)C1CCn2c(C(=O)c3ccccc3)ccc21 (centres unmarked) [N15]	0.09
CCC(=O)OC(CC)OC(=O)C1CCn2c(C(=O)c3ccccc3)ccc21 (centres unmarked) [N8]	0.42
CCC(=O)OC(C)OC(=O)C1CCn2c(C(=O)c3ccccc3)ccc21 (centres unmarked) [N4]	0.17

Same assay, conditions: related substance, in the dark, Day 10

Compound	Ketorolac (%)
CCC(OC(=O)OC(C)C)OC(=O)C1CCn2c(C(=O)c3ccccc3)ccc21 (centres unmarked) [N16]	0.07
CCOC(=O)OC(CC)OC(=O)C1CCn2c(C(=O)c3ccccc3)ccc21 (centres unmarked) [N15]	0.14
CCC(=O)OC(CC)OC(=O)C1CCn2c(C(=O)c3ccccc3)ccc21 (centres unmarked) [N8]	0.96
CCC(=O)OC(C)OC(=O)C1CCn2c(C(=O)c3ccccc3)ccc21 (centres unmarked) [N4]	0.14

Experiment: in vitro
Settings: human, plasma

half-life at 97.6 µM [min]	Compound
177	CCCCCCCCOC(=O)OC(C)OC(=O)C1CCn2c(C(=O)c3ccccc3)ccc21 (centres unmarked) [N26]
16.9	CCC(=O)OC(CC)OC(=O)C1CCn2c(C(=O)c3ccccc3)ccc21 (centres unmarked) [N8]
40.8	CC(=O)OC(C)OC(=O)C(C)c1ccc(-c2ccccc2)c(F)c1 (centres unmarked) [FPA, flurbiprofen axetil, reference compound]
347	CC(C)OC(=O)C1CCn2c(C(=O)c3ccccc3)ccc21 (centres unmarked) [N11, reference compound]

Compound	half-life at 97.6 µM [min]
CCC(OC(=O)OC(C)C)OC(=O)C1CCn2c(C(=O)c3ccccc3)ccc21 (centres unmarked) [N16]	31.6

Experiment: not given
Settings: human, 0 min, 97.6 µM

Compound	Content of ketorolac % [%]	Content of the compound % [%]
CCC(OC(=O)OC(C)C)OC(=O)C1CCn2c(C(=O)c3ccccc3)ccc21 (centres unmarked) [N16]	0	100 ± 4.001
CCOC(=O)OC(CC)OC(=O)C1CCn2c(C(=O)c3ccccc3)ccc21 (centres unmarked) [N15]	1.727 ± 1.502	99.560 ± 2.324
CCC(=O)OC(CC)OC(=O)C1CCn2c(C(=O)c3ccccc3)ccc21 (centres unmarked) [N8]	0	100 ± 1.782
CC(C)OC(=O)C1CCn2c(C(=O)c3ccccc3)ccc21 (centres unmarked) [N11, reference compound]	0	99.700 ± 2.928

Same assay, conditions: human, 1 min, 97.6 µM

Content of ketorolac % [%]	Content of the compound % [%]	Compound
0	100	CCCCCCCCOC(=O)OC(C)OC(=O)C1CCn2c(C(=O)c3ccccc3)ccc21 (centres unmarked) [N26]

Same assay, conditions: human, 15 min, 97.6 µM

Compound	Content of ketorolac % [%]	Content of the compound % [%]
CCC(OC(=O)OC(C)C)OC(=O)C1CCn2c(C(=O)c3ccccc3)ccc21 (centres unmarked) [N16]	9.847 ± 2.479	82.710 ± 1.909
CCOC(=O)OC(CC)OC(=O)C1CCn2c(C(=O)c3ccccc3)ccc21 (centres unmarked) [N15]	23.933 ± 1.119	76.800 ± 2.423

Now from value to molecule:

Content of ketorolac % [%]	Content of the compound % [%]	Compound
0	100	CCCCCCCCOC(=O)OC(C)OC(=O)C1CCn2c(C(=O)c3ccccc3)ccc21 (centres unmarked) [N26]
19.140 ± 1.467	69.713 ± 6.985	CCC(=O)OC(CC)OC(=O)C1CCn2c(C(=O)c3ccccc3)ccc21 (centres unmarked) [N8]
0	99.813 ± 4.881	CC(C)OC(=O)C1CCn2c(C(=O)c3ccccc3)ccc21 (centres unmarked) [N11, reference compound]

Same assay, conditions: human, 30 min, 97.6 µM

Compound	Content of ketorolac % [%]	Content of the compound % [%]
CCC(OC(=O)OC(C)C)OC(=O)C1CCn2c(C(=O)c3ccccc3)ccc21 (centres unmarked) [N16]	28.653 ± 0.277	65.987 ± 0.506
CCOC(=O)OC(CC)OC(=O)C1CCn2c(C(=O)c3ccccc3)ccc21 (centres unmarked) [N15]	50.917 ± 1.868	46.680 ± 2.229

Continued, values first:

Content of ketorolac % [%]	Content of the compound % [%]	Compound
3.89 ± 0.61	95.48 ± 1.56	CCCCCCCCOC(=O)OC(C)OC(=O)C1CCn2c(C(=O)c3ccccc3)ccc21 (centres unmarked) [N26]
36.277 ± 3.301	42.467 ± 2.983	CCC(=O)OC(CC)OC(=O)C1CCn2c(C(=O)c3ccccc3)ccc21 (centres unmarked) [N8]
0	89.807 ± 2.538	CC(C)OC(=O)C1CCn2c(C(=O)c3ccccc3)ccc21 (centres unmarked) [N11, reference compound]

Same assay, conditions: human, 60 min, 97.6 µM

Compound	Content of ketorolac % [%]	Content of the compound % [%]
CCC(OC(=O)OC(C)C)OC(=O)C1CCn2c(C(=O)c3ccccc3)ccc21 (centres unmarked) [N16]	56.793 ± 2.096	35.437 ± 1.960
CCOC(=O)OC(CC)OC(=O)C1CCn2c(C(=O)c3ccccc3)ccc21 (centres unmarked) [N15]	83.957 ± 3.139	12.760 ± 1.133

Further lines, results first:

Content of ketorolac % [%]	Content of the compound % [%]	Compound
8.60 ± 0.33	89.20 ± 1.67	CCCCCCCCOC(=O)OC(C)OC(=O)C1CCn2c(C(=O)c3ccccc3)ccc21 (centres unmarked) [N26]
53.130 ± 2.171	8.777 ± 0.560	CCC(=O)OC(CC)OC(=O)C1CCn2c(C(=O)c3ccccc3)ccc21 (centres unmarked) [N8]
2.270 ± 0.328	83.490 ± 9.087	CC(C)OC(=O)C1CCn2c(C(=O)c3ccccc3)ccc21 (centres unmarked) [N11, reference compound]

Same assay, conditions: human, 120 min, 97.6 µM

Compound	Content of ketorolac % [%]	Content of the compound % [%]
CCC(OC(=O)OC(C)C)OC(=O)C1CCn2c(C(=O)c3ccccc3)ccc21 (centres unmarked) [N16]	70.443 ± 4.274	7.047 ± 0.374
CCOC(=O)OC(CC)OC(=O)C1CCn2c(C(=O)c3ccccc3)ccc21 (centres unmarked) [N15]	96.910 ± 3.848	0.893 ± 0.051
CCCCCCCCOC(=O)OC(C)OC(=O)C1CCn2c(C(=O)c3ccccc3)ccc21 (centres unmarked) [N26]	24.34 ± 0.90	68.99 ± 1.45
CCC(=O)OC(CC)OC(=O)C1CCn2c(C(=O)c3ccccc3)ccc21 (centres unmarked) [N8]	65.997 ± 3.446	0

Experiment: Enzymolysis kinetics experiment of compounds in plasma
Settings: human plasma, up to 120 min

degradation / metabolic rate in human plasma (in words)	Compound
could be metabolized faster	CC(=O)OC(C)OC(=O)C(C)c1ccc(-c2ccccc2)c(F)c1 (centres unmarked) [FPA, flurbiprofen axetil, reference compound]

Same assay, conditions: human, plasma

Compound	half-life at 97.6 µM [min]
CCOC(=O)OC(CC)OC(=O)C1CCn2c(C(=O)c3ccccc3)ccc21 (centres unmarked) [N15]	16.9
